According to patent US6355799B1, “Substituted benzene compounds, process for their preparation, and herbicidal and defoliant compositions containing them” (ISK Americas Incorporated, priority 1997, dated 2002):

What was measured:
Format in all cases: in vivo
[1] = tested on: upland rice (Oryza sp., var. Tebonnet, RICE); assay: Post-emerge test, crop safety; conditions: post-emerge, 14 days after application, rating scale 0-100
Source text: (§1) A standard greenhouse herbicide activity screening system was used to evaluate the herbicidal efficacy and crop safety of these test compounds. Seven broadleaf weed species including redroot pigweed (Amaranthus retroflexus, AMARE, velvetleaf (Abutilon theophrasti, ABUTH), sicklepod (Cassia obtusifolia, CASOB), ivyleaf morningglory (Ipomoea hederacea, IPOHE), lambsquarters (Chenopodium album, CHEAL), common ragweed (Ambrosia artemisizfolia L., AMBEL), and cocklebur (Xanthium strumarium, XANST) were used as test species. Four grass weed species including green foxtail (Setaria viridis, SETVI), barnyardgrass (Echinochloa crus-galli, ECHCG), johnsongrass (Sorghum halepense, SORHA), and large crabgrass (Digitaria sanguinalis, DIGSA) were also used. In addition, three crop species, field corn (Zea mays L., var. Dekalb 535, CORN), soybean (Glycine max L., var. Pella 86, SOY), and is upland rice (Oryza sp., var. Tebonnet, RICE) were included.
(§2) All plants were grown in 10 cm square plastic pots which were filled with a sandy loam soil mix. For pre-emerge tests, seeds were planted one day prior to application of the test compounds. For post-emerge tests, seeds were planted 8-21 days prior to the test to allow emergence and good foliage development prior to application of the test substances. At the time of the post-emerge application, plants of all species were usually at the 2-3 leaf stage of development.
(§3) All test compounds Were dissolved in acetone and applied to the test units in a volume of 187 l /ha. Test materials were applied at rates ranging from 15 g ai/ha to 1000 g ai/ha using a track sprayer equipped with a TJ8001E even flow flat fan spray nozzle. Plants were arranged on a shelf so that the top of the canopy (post-emerge) or top of the soil surface (pre-emerge) was 40-45 cm below the nozzle. Pressurized air was used to force the test solution through the nozzle as it was mechanically advanced (via electrically driven chain drive) over the top of all test plants/pots. This application simulates a typical commercial field herbicide application.
(§4) In the post-emerge test, a commercial non-ionic surfactant was also included (0.25% v/v) to enhance wetting of the leaf surfaces of target plants. Immediately after application, test units of the pre-emerge applications were watered at the soil surface to incorporate the test materials. Subsequently, these test units were bottom-watered. Post-emerge test units were always bottom-watered.
(§5) At 14 days after application of the test materials, phytotoxicity ratings were recorded. A rating scale of 0-100 was used as previously described in Research Methods in Weed Science, 2nd edition, B. Truelove, Ed., Southern Weed Science Society, Auburn University, Auburn, Ala. 1977. Briefly, “0” corresponds to no damage and “100” corresponds to complete death of all plants in the test unit. This scale was used both to determine efficacy against weed species and damage to crop species. Herbicide activity data for various compounds of this invention, which are shown by compound No. in Tables 1-8, are shown in Tables 11 and 12.

[2] = tested on: field corn (Zea mays L., var. Dekalb 535, CORN); assay: Post-emerge test, crop safety; conditions: post-emerge, 14 days after application, rating scale 0-100
Source text: as §1, §2, §3, §4, §5

[3] = tested on: redroot pigweed (Amaranthus retroflexus, AMARE); assay: Post-emerge test, greenhouse herbicide activity screening; conditions: post-emerge, 14 days after application, rating scale 0-100
Source text: as §1, §2, §3, §4, §5

[4] = tested on: barnyardgrass (Echinochloa crus-galli, ECHCG); assay: as above; conditions: post-emerge, 14 days after application, rating scale 0-100
Source text: as §1, §2, §3, §4, §5

[5] = tested on: ivyleaf morningglory (Ipomoea hederacea, IPOHE); assay: as above; conditions: post-emerge, 14 days after application, rating scale 0-100
Source text: as §1, §2, §3, §4, §5

[6] = tested on: velvetleaf (Abutilon theophrasti, ABUTH); assay: as above; conditions: post-emerge, 14 days after application, rating scale 0-100
Source text: as §1, §2, §3, §4, §5

[7] = tested on: large crabgrass (Digitaria sanguinalis, DIGSA); assay: as above; conditions: post-emerge, 14 days after application, rating scale 0-100
Source text: as §1, §2, §3, §4, §5

[8] = tested on: sicklepod (Cassia obtusifolia, CASOB); assay: as above; conditions: post-emerge, 14 days after application, rating scale 0-100
Source text: as §1, §2, §3, §4, §5

[9] = tested on: lambsquarters (Chenopodium album, CHEAL); assay: as above; conditions: post-emerge, 14 days after application, rating scale 0-100
Source text: as §1, §2, §3, §4, §5

[10] = tested on: green foxtail (Setaria viridis, SETVI); assay: as above; conditions: post-emerge, 14 days after application, rating scale 0-100
Source text: as §1, §2, §3, §4, §5

[11] = tested on: redroot pigweed (Amaranthus retroflexus, AMARE); assay: Pre-emerge test, greenhouse herbicide activity screening; conditions: pre-emerge, 14 days after application, scale 0-100
Source text: as §1, §2
as §3, with “Test materials were applied at rates ranging from 15 g ai/ha to 1000 g ai/ha using a track sprayer equipped with a TJ8001E even flow flat fan spray nozzle.” left out
as §4, §5

[12] = tested on: barnyardgrass (Echinochloa crus-galli, ECHCG); assay: as above; conditions: pre-emerge, 14 days after application, scale 0-100
Source text: as §1, §2, §3, §4, §5

[13] = tested on: ivyleaf morningglory (Ipomoea hederacea, IPOHE); assay: as above; conditions: pre-emerge, 14 days after application, scale 0-100
Source text: as §1, §2, §3, §4, §5

[14] = tested on: velvetleaf (Abutilon theophrasti, ABUTH); assay: as above; conditions: pre-emerge, 14 days after application, scale 0-100
Source text: as §1, §2, §3, §4, §5

[15] = tested on: large crabgrass (Digitaria sanguinalis, DIGSA); assay: as above; conditions: pre-emerge, 14 days after application, scale 0-100
Source text: as §1, §2, §3, §4, §5

[16] = tested on: sicklepod (Cassia obtusifolia, CASOB); assay: as above; conditions: pre-emerge, 14 days after application, scale 0-100
Source text: as §1, §2, §3, §4, §5

[17] = tested on: lambsquarters (Chenopodium album, CHEAL); assay: as above; conditions: pre-emerge, 14 days after application, scale 0-100
Source text: as §1, §2, §3, §4, §5

[18] = tested on: green foxtail (Setaria viridis, SETVI); assay: as above; conditions: pre-emerge, 14 days after application, scale 0-100
Source text: as §1, §2, §3, §4, §5

[19] = tested on: upland rice (Oryza sp., var. Tebonnet, RICE); assay: Pre-emerge test, crop safety; conditions: pre-emerge, 14 days after application, scale 0-100
Source text: as §1, §2, §3, §4, §5

[20] = tested on: field corn (Zea mays L., var. Dekalb 535, CORN); assay: Pre-emerge test, crop safety; conditions: pre-emerge, 14 days after application, scale 0-100
Source text: as §1, §2, §3, §4, §5

For `COc1c(Cl)cc(F)c(-n2c(=O)cc(C(F)(F)F)n(C)c2=O)c1NC(=O)C(C#N)=Cc1ccccc1` [2-136], the “RICE phytotoxicity rating (crop damage)” value ([1]; 63 g ai/ha) was 5, the “RICE phytotoxicity rating (crop damage)” value ([1]; 250 g ai/ha) was 10 and the “CORN phytotoxicity rating (crop damage)” value ([2]; 63 g ai/ha) was 15. The “CORN phytotoxicity rating (crop damage)” value ([2]; 250 g ai/ha) was 10, the AMARE phytotoxicity rating ([3]; 63 g ai/ha) was 100 and the AMARE phytotoxicity rating ([3]; 250 g ai/ha) was 100. It also gave an ECHCG phytotoxicity rating ([4]; 63 g ai/ha) of 0, an ECHCG phytotoxicity rating ([4]; 250 g ai/ha) of 10 and an IPOHE phytotoxicity rating ([5]; 63 g ai/ha) of 80. It also gave an IPOHE phytotoxicity rating ([5]; 250 g ai/ha) of 100, an ABUTH phytotoxicity rating ([6]; 63 g ai/ha) of 100 and an ABUTH phytotoxicity rating ([6]; 250 g ai/ha) of 100. For the same compound, the DIGSA phytotoxicity rating ([7]; 63 g ai/ha) was 0, the DIGSA phytotoxicity rating ([7]; 250 g ai/ha) was 20 and the CASOB phytotoxicity rating ([8]; 63 g ai/ha) was 60. It also gave a CASOB phytotoxicity rating ([8]; 250 g ai/ha) of 100, a CHEAL phytotoxicity rating ([9]; 63 g ai/ha) of 95 and a CHEAL phytotoxicity rating ([9]; 250 g ai/ha) of 100. For the same compound, the SETVI phytotoxicity rating ([10]; 63 g ai/ha) was 20, the SETVI phytotoxicity rating ([10]; 250 g ai/ha) was 30 and the “phytotoxicity rating AMARE” value ([11]; 63 g ai/ha) was 40. For the same compound, the “phytotoxicity rating AMARE” value ([11]; 250 g ai/ha) was 90, the “phytotoxicity rating ECHCG” value ([12]; 63 g ai/ha) was 0 and the “phytotoxicity rating ECHCG” value ([12]; 250 g ai/ha) was 0. The “phytotoxicity rating IPOHE” value ([13]; 63 g ai/ha) was 0, the “phytotoxicity rating IPOHE” value ([13]; 250 g ai/ha) was 100 and the “phytotoxicity rating ABUTH” value ([14]; 63 g ai/ha) was 80. For the same compound, the “phytotoxicity rating ABUTH” value ([14]; 250 g ai/ha) was 100, the “phytotoxicity rating DIGSA” value ([15]; 63 g ai/ha) was 0 and the “phytotoxicity rating DIGSA” value ([15]; 250 g ai/ha) was 10. For the same compound, the “phytotoxicity rating CASOB” value ([16]; 63 g ai/ha) was 0, the “phytotoxicity rating CASOB” value ([16]; 250 g ai/ha) was 40 and the “phytotoxicity rating CHEAL” value ([17]; 63 g ai/ha) was 90. For the same compound, the “phytotoxicity rating CHEAL” value ([17]; 250 g ai/ha) was 100, the “phytotoxicity rating SETVI” value ([18]; 63 g ai/ha) was 10 and the “phytotoxicity rating SETVI” value ([18]; 250 g ai/ha) was 40. For the same compound, the “phytotoxicity rating RICE (crop damage)” value ([19]; 63 g ai/ha) was 0, the “phytotoxicity rating RICE (crop damage)” value ([19]; 250 g ai/ha) was 10 and the “phytotoxicity rating CORN (crop damage)” value ([20]; 63 g ai/ha) was 0. For the same compound, the “phytotoxicity rating CORN (crop damage)” value ([20]; 250 g ai/ha) was 0.
